Laboratory results published in US6841577B2, “Pesticidal activity of plant essential oils and their constituents” (Ecosmart Technologies, Inc., priority 1999, dated 2005).

What was measured:
[1] = test system: octopamine receptor sites; assay: 3H-OA binding to ventral nerve cord / synaptosomal membrane protein; design: species or system American cockroach (Periplaneta americana); details: for classification with respect to octopamine receptor sites (OAR): based on the binding data of Tables 1-3; for dpm 3H-OA/500 μg protein: Table 2
Experimental: Different concentrations of unlabeled octopamine (OA) (20, 30, 40, 50, 60, 100 ng) were tested on the binding activity as a positive control. Test chemicals were dissolved in acetone before the assay. Different concentrations of the test chemicals were added directly to the protein preparation from ventral nerve cord. The same amount of solvent (1 μl 0.1%) were added to the control samples. All assays with test chemicals were run in the presence and absence of 50 ng OA. All chemicals were added to the protein extract 20 min prior the addition of radio labeled ^3H-OA(100,000 cpm/sample). After 30 min at 24° C. of the addition of ^3H-OA, the reaction was stopped by the addition of ice-cold Tris buffer, and the samples were filtered through GF/C membrane using water vacuum. After two washes each with 5 ml Tris buffer, the membrane was removed, air dried and the radioactivity was counted in 4 ml liquid scintillation solution. The specific binding was calculated as the difference between the values in the presence and absence of unlabeled OA. All data are calculated as the mean±standard deviation of 5 assays.
Additional tests were conducted on radio labeled octopamine using other purified naturally occurring materials as given in Tables 2 and 3.

American cockroach [2] = assay: Lethal effect of injected test chemicals; type: in vivo
Experimental: Further studies were conducted to determine the LD 50 of purified naturally occurring plant essential oils and/or their constituents. […] Ten roaches per dose were used. Another group of ten roaches received the same volume of vehicle only (0.5 μl) and used as a control group. Mortality was recorded 24, 48, and 72 hours after exposure.

[3] = test system: heart of American cockroach (octopamine receptors); assay: Heartbeat after application to thoracic segment; type: in vivo; details: mean ±SD of three roaches; for Heart beat/30 sec 30 min after treatment: 300 μg applied to thoracic segment; for Heart beat/30 sec before treatment: baseline of the same roaches
Experimental: To further establish the effect of the purified naturally occurring plant essential oils and/or their constituents on the American cockroach, a 300 μg amount of the chemical was applied to the thoracic segment of an intact and alive American cockroach. The heart beats/30 seconds was measured. The heart of the cockroach is known to have a high concentration of octopamine receptors and the heart beat is considered an important measurement to indicate the effect of the applied chemicals to the octopamine receptors.

American cockroach [4] = assay: Cross walk jar test on pre-treated surface; type: in vivo
Experimental: In the test, a known amount of the test material was dissolved in a known volume of acetone and applied to small jars and all inner bottom surfaces were covered. The bottom surface of each jar is approximately 250 cm^2. One hour after the acetone had completely evaporated, five American cockroaches were introduced to each jar. Control jars were treated exactly as above but with the known amount of acetone only.
The results of the “cross walk” jar tests are in Table 8 in which the “4-blend” was dispersed as an aerosol and a dust in the jar.
In this test, the acetone solution of the test material was placed in the jar and the roach inserted into the jar after the acetone had evaporated.
Mortality was measured 24 hours after exposure.
The “4-blend” and the individual constituents of the “4-blend” were tested using 10 cockroaches for each “cross walk” treatment. In addition, pyrethrins were tested separately and mixed with the various components.
A concentration of 100 mg/jar was used for each individual alone. In the co-treatment experiment without pyrethrins, 20 mg/jar for each chemical was used. In the cotreatment experiment with pyrethrins, 20 mg/jar for the naturally occurring plant material was used. Pyrethrins was used at 2 mg/jar. […] It was noted above that the mortality is dependent upon concentration. […] Some synergism is found between pyrethrins and either α-terpineol or benzyl alcohol.

[5] = 500 ng/ml, Table 3, solvent control 1385 ± 101
[6] = 1000 ng/ml, Table 3, solvent control 1915 ± 110
[7] = 500 μg/roach injected into thoracic and abdominal segments, 24 hr., dead/10
[8] = 500 μg/roach injected, 48 hr., dead/10
[9] = 500 μg/roach injected, 72 hr., dead/10, control 1/10
[10] = 500 ng/ml, solvent control 1101 ± 120
[11] = 1000 ng/ml, solvent control 930 ± 89
[12] = 300 ng test chemical, Table 1, solvent control 1280 ± 259
[13] = 500 ng test chemical, Table 1, solvent control 1280 ± 259
[14] = 700 ng test chemical, Table 1, solvent control 1280 ± 259
[15] = 1000 ng test chemical, Table 1, solvent control 1280 ± 259
[16] = 1500 ng test chemical, Table 1, solvent control 1280 ± 259

C=C(C)[C@H]1CC=C(C)CC1 [R-limonene]
cpm 3H-OA/500 μg protein [1, 5]: 1436 ± 133 cpm 3H-OA/500 μg protein | classification with respect to octopamine receptor sites (OAR) [1]: Non-OAR Specific Toxicants

C/C=C/c1ccc(OC)cc1 [Trans-Anethole]
agonist/antagonist note to 3H-OA binding ([1]; 500 ng/ml): antagonist | cpm 3H-OA/500 μg protein [1, 5]: 1104 ± 110 cpm 3H-OA/500 μg protein | cpm 3H-OA/500 μg protein [1, 6]: 970 ± 87 cpm 3H-OA/500 μg protein | classification with respect to octopamine receptor sites (OAR) [1]: moderate OAR antagonists

COc1cc(C=O)ccc1O [Vanillin]
agonist/antagonist note to 3H-OA binding ([1]; 500 ng/ml): antagonist | cpm 3H-OA/500 μg protein [1, 5]: 1030 ± 83 cpm 3H-OA/500 μg protein | cpm 3H-OA/500 μg protein [1, 6]: 700 ± 55 cpm 3H-OA/500 μg protein

CC(C)=CCCC(C)CC=O (centres unmarked) [citronellal]
Mortality (American cockroach [2]; [7]): 0/10 | Mortality (American cockroach [2]; [8]): 0/10 | Mortality (American cockroach [2]; [9]): 0/10

C=C(C)[C@H]1CC=C(C)CC1 [d-limonene]
Mortality (American cockroach [2]; [7]): 0/10 | Mortality (American cockroach [2]; [8]): 0/10 | Mortality (American cockroach [2]; [9]): 0/10 | activity/binding at octopamine receptor sites, in words [1]: no activity against octopamine receptor sites | dpm 3H-OA/500 μg protein [1, 10]: 1194 ± 101 dpm 3H-OA/500 μg protein | dpm 3H-OA/500 μg protein [1, 11]: 866 ± 71 dpm 3H-OA/500 μg protein

Cc1ccc(C(C)C)cc1 [p-cymene]
agonist/antagonist note to 3H-OA binding ([1]; 500 ng/ml): antagonist | cpm 3H-OA/500 μg protein [1, 5]: 1142 ± 074 cpm 3H-OA/500 μg protein | cpm 3H-OA/500 μg protein [1, 6]: 804 ± 057 cpm 3H-OA/500 μg protein | classification with respect to octopamine receptor sites (OAR) [1]: moderate OAR antagonists

OCCc1ccccc1 [phenethyl alcohol]
Heart beat/30 sec 30 min after treatment [3]: 29 ± 2 beat/30 sec | Heart beat/30 sec before treatment [3]: 47 ± 2 beat/30 sec | mortality at 100 mg (American cockroach [4]; Periplaneta americana, 24 h): 0% | mortality at 100 mg (American cockroach [4]; Periplaneta americana, 48 h): 0% | mortality at 100 mg (American cockroach [4]; Periplaneta americana, 72 h): 0% | Mortality (American cockroach [2]; [7]): 0/10 | Mortality (American cockroach [2]; [8]): 0/10 | Mortality (American cockroach [2]; [9]): 0/10

CC(C)=C1CC[C@@H](C)CC1=O [pulegone]
mortality at 10 mg (American cockroach [4]; Periplaneta americana, 24 h): 100% | pesticidal activity against cockroaches, in words (American cockroach [4]; in vivo): high pesticidal activity | Mortality (American cockroach [2]; 50 μg injected through the end of the abdominal segment, 48 hr. after treatment): 20% | Mortality 24 hr after treatment (American cockroach [2]; 300 μg, dead/10): 3/10 | Mortality 24 hr after treatment (American cockroach [2]; 400 μg, dead/10): 5/10 | Mortality (American cockroach [2]; [7]): 6/10 | Mortality (American cockroach [2]; [8]): 6/10 | Mortality (American cockroach [2]; [9]): 7/10 | Mortality 24 hr after treatment (American cockroach [2]; 500 μg, dead/10): 5/10 | Mortality 24 hr after treatment (American cockroach [2]; 600 μg, dead/10): 8/10 | Mortality 24 hr after treatment (American cockroach [2]; 700 μg, dead/10): 10/10 | cpm 3H-OA/500 μg protein [1, 12]: 936 ± 33 cpm 3H-OA/500 μg protein | cpm 3H-OA/500 μg protein [1, 13]: 778 ± 22 cpm 3H-OA/500 μg protein | cpm 3H-OA/500 μg protein [1, 14]: 662 ± 51 cpm 3H-OA/500 μg protein | cpm 3H-OA/500 μg protein [1, 15]: 435 ± 22 cpm 3H-OA/500 μg protein | cpm 3H-OA/500 μg protein [1, 16]: 217 ± 18 cpm 3H-OA/500 μg protein | classification with respect to octopamine receptor sites (OAR) [1]: high OAR antagonists

CC1=CC[C@H](C(C)C)C=C1 [α-phellandrene]
agonist/antagonist note to 3H-OA binding ([1]; 500 ng/ml): agonist | cpm 3H-OA/500 μg protein [1, 5]: 2353 ± 343 cpm 3H-OA/500 μg protein | classification with respect to octopamine receptor sites (OAR) [1]: OAR Agonists

CC1=CCC(C(C)(C)O)CC1 (stereo not drawn) [α-terpineol]
Heart beat/30 sec 30 min after treatment [3]: 32 ± 2 beat/30 sec | Heart beat/30 sec before treatment [3]: 58 ± 4 beat/30 sec | mortality at 100 mg (American cockroach [4]; Periplaneta americana, 24 h): 20% | mortality at 100 mg (American cockroach [4]; Periplaneta americana, 48 h): 30% | mortality at 100 mg (American cockroach [4]; Periplaneta americana, 72 h): 60% | cpm 3H-OA/500 μg protein [1, 12]: 1213 ± 110 cpm 3H-OA/500 μg protein | cpm 3H-OA/500 μg protein [1, 13]: 1031 ± 24 cpm 3H-OA/500 μg protein | cpm 3H-OA/500 μg protein [1, 14]: 910 ± 88 cpm 3H-OA/500 μg protein | cpm 3H-OA/500 μg protein [1, 15]: 700 ± 88 cpm 3H-OA/500 μg protein | cpm 3H-OA/500 μg protein [1, 16]: 565 ± 47 cpm 3H-OA/500 μg protein | classification with respect to octopamine receptor sites (OAR) [1]: moderate OAR antagonists

Citronellal 80
agonist/antagonist note to 3H-OA binding ([1]; 500 ng/ml): antagonist | dpm 3H-OA/500 μg protein [1, 10]: 725 ± 95 dpm 3H-OA/500 μg protein | dpm 3H-OA/500 μg protein [1, 11]: 526 ± 33 dpm 3H-OA/500 μg protein | classification with respect to octopamine receptor sites (OAR) [1]: moderate OAR antagonists
